Several values for one entry are separate records, joined by “and”; a condition that tells them apart may be missing. Equal values may be shown once.
Legend:
FLT3 = target: T1, FLT3 (Homo sapiens, UniProt P36888); experiment: In vitro FLT3 kinase assay (HTRF); type: biochemical; settings: recombinant FLT3, HTRF; read-out: IC50 FLT3 kinase activity
T1 construct: Recombinant proteins containing the FLT3 kinase domain were purchased from Carna biosciences (Japan); purchased Carna biosciences (Japan)
T1 sequence (P36888 610-943 limits assumed): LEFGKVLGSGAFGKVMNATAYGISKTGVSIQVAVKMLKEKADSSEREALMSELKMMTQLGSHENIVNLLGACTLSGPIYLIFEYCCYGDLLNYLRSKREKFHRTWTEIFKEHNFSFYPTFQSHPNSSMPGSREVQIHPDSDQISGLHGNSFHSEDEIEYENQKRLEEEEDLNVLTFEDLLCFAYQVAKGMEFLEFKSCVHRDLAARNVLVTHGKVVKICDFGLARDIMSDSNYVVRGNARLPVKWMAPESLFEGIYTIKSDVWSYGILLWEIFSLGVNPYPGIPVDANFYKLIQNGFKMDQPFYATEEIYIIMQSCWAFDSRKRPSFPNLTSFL
Protocol: The inhibition of the FLT3 kinase activity was measured with homogeneous, time-resolved fluorescence (HTRF) assays. Recombinant proteins containing the FLT3 kinase domain were purchased from Carna biosciences (Japan). Optimal enzyme, ATP, and substrate concentrations were established with the HTRF KinEASE kit (Cisbio, France) according to the manufacturer’s instructions. The FLT3 enzymes were mixed with serially diluted compounds and peptide substrates in a kinase reaction buffer (50 mM HEPES (pH 7.0), 500 μM ATP, 0.1 mM sodium orthovanadate, 5 mM MgCl2, 1 mM DTT, 0.01% bovine serum albumin (BSA), and 0.02% NaN3). After the addition of the reagents for detection, the TR-FRET signal was measured with a Victor multilabel reader (Perkin Elmer, Waltham, MA, USA). […] JAK2, JAK3, cMET, and RET in vitro kinase assays were also carried out using the HTRF assay kit.

MV-4-11 cells = experiment: Cell viability / growth inhibition (EZ-Cytox), MV-4-11; type: cell-based, human; settings: 72 h; called IC50 in supplementary text
Protocol: The cultured cells were incubated at 37°C with 5% CO2. Cell viability was assessed with a tetrazolium-based assay using the EZ-Cytox Cell Viability Assay kit (DaeilLab, Korea). Briefly, 2,000 ∼ 15,000 cells were plated in 96-well flat bottom plates in 100 µl of medium. The next day, the cells were treated with compounds along with dimethyl sulfoxide (DMSO, Fisher, Waltham, MA, USA) as a negative control. […] After incubation, the optical density (OD) was measured at a wavelength of 450 nm with a Victor multilabel reader (Perkin Elmer, Waltham, MA, USA).

[1] = tested on: FLT3, VEGFR1/2, PDGFRβ, and PKCα/β/γ; parameters: method as in PMID 10888033; settings: read-out: IC50s against kinases including FLT3, VEGFR1/2, PDGFRβ, and PKCα/β/γ; cited from earlier work
[2] = Pharmacokinetics in mice (intravenous and oral); type: in vivo, ICR mice; settings: for AUC1940/AUC1937 / AUC / Ae0–24 h / Cmax / GI24 h / Terminal half-life / Tmax: mice
Protocol: The protocols for the animal studies were approved by the Institute of Laboratory Animal Resources of Dongguk University, Seoul, South Korea (IACUC-2015-055-1). Five-week-old male Imprinting Control Region (ICR) mice were purchased from the Charles River Company Korea (Orient, Seoul, South Korea). Upon arrival, the animals were randomized and housed four per cage under strictly controlled environmental conditions (22-25°C and 48-52% relative humidity) with a 12 h light/dark cycle at an intensity of 150 to 300 Lux. All mice were provided food and water ad libitum and were then maintained during this study. In the intravenous study of LDD1937, 10 mg/kg of LDD1937 (dissolved in distilled water at a concentration of 2 mg/ml) were intravenously injected into the mice through the tail vein. A blood sample of approximately 0.12 ml was collected by cardiac puncture. Additionally, in the oral study of LDD1937, 10 mg/kg of LDD1937 (dissolved in the same solution used in the intravenous study) were orally administered to the mice. The analysis of LDD1937 and LDD1940, a metabolite of LDD1937, in biological samples was done with LC-MS/MS using the Waters UPLC-XEVO TQ system (Waters Corporation, Milford, CT, USA). […]1940, and carbamazepine (an internal standard, IS) were ionized in the multiple reaction monitoring mode with an ESI interface for positive ions ([M+H]^+). The turbo ion-spray interface was operated at an ion capillary voltage of 3.0 kV with a desolvation gas flow of 650 l/h and a cone gas flow of 10 l/h at 350°C. […] Separation was done on a reverse-phase C18 column (BEH, […]; Waters, Ireland) with a mobile phase, distilled water containing 0.1% formic acid and acetonitrile, at 30°C. After measuring the concentrations of the LDD1937 and LDD1940, standard methods were used to calculate the pharmacokinetic parameters using a non-compartmental analysis (WinNonlin 2.1; […] Corp., Mountain View, CA, USA).

[3] = metabolite LDD1940 after 10 mg/kg LDD1937 intravenous
[4] = metabolite LDD1940 after 10 mg/kg LDD1937 oral

Structure (SMILES) | IC50 (FLT3) | GI50 (MV-4-11 cells) | further results
O=C1Nc2ccc(C(=O)O)cc2/C1=C1/Nc2ccccc2/C1=N\OCCBr [Compound 8] | 0.0129 ± 0.00097 µM | 0.34 ± 0.081 µM | 
CN1CCN(CCO/N=C2/C(=C3/C(=O)Nc4ccc(C(=O)O)cc43)Nc3ccccc32)CC1 [Compound 11] | 0.0033 ± 0.0006 µM | 0.176 ± 0.051 µM | 
Cl.Cl.O=C1Nc2ccc(C(=O)O)cc2/C1=C1/Nc2ccccc2/C1=N\OCCN1CCNCC1 [LDD1940] | 0.00245 µM and 0.0025 µM | 0.04 µM | AUC1940/AUC1937 ([2]; after 10 mg/kg LDD1937 intravenous): 42.7 ± 9.44%; AUC1940/AUC1937 ([2]; after 10 mg/kg LDD1937 oral): 65.3 ± 16.8%; Tmax of LDD1940 ([2]; after intravenous and oral administration of LDD1937, mice (span over both routes)): 1∼15 min; AUC [2, 3]: 54.6 ± 0.592 µg·min/mL; Ae0–24 h [2, 3]: 0.868 ± 0.0333 % of dose; Cmax [2, 3]: 1450 ± 694 µg/mL; GI24 h [2, 3]: 0.719 ± 0.0556 % of dose; Terminal half-life [2, 3]: 2.37 ± 2.02 h; Tmax [2, 3]: 1 (1–1) min; AUC [2, 4]: 1.84 ± 0.0741 µg·min/mL; Ae0–24 h [2, 4]: 0.0787 ± 0.0791 % of dose; Cmax [2, 4]: 8.17 ± 2.44 µg/mL; GI24 h [2, 4]: 0.792 ± 1.09 % of dose; Terminal half-life [2, 4]: 12.4 ± 2.15 h; Tmax [2, 4]: 15 (15–120) min
COC(=O)c1ccc2c(c1)/C(=C1/Nc3ccccc3/C1=N\OCCN)C(=O)N2 [Compound 3] | 0.0045 ± 0.00075 µM | 0.015 ± 0.003 µM | 
O=C1Nc2ccc(C(=O)O)cc2/C1=C1/Nc2ccccc2/C1=N\O [Compound 7] |  | > 1 µM | GI50 MV-4-11 (MV-4-11 cells): lack of an anti-proliferative activity
NCCO/N=C1/C(=C2/C(=O)Nc3ccc(C(=O)O)cc32)Nc2ccccc21 [Compound 9] | 0.0033 ± 0.00011 µM | 0.15 ± 0.033 µM | 

Further lines, with some results ahead:

IC50 (FLT3) | Structure (SMILES) | GI50 (MV-4-11 cells) | further results
0.0108 ± 0.00202 µM | COC(=O)c1ccc2c(c1)/C(=C1/Nc3ccccc3/C1=N\OCCN1CCN(C)CC1)C(=O)N2 [Compound 5] | 0.011 ± 0.0015 µM | 
0.0192 ± 0.00188 µM | COC(=O)c1ccc2c(c1)/C(=C1/Nc3ccccc3/C1=N\OCCBr)C(=O)N2 [Compound 2] | 0.051 ± 0.011 µM | 
0.253 ± 0.0814 µM | COC(=O)c1ccc2c(c1)/C(=C1/Nc3ccccc3/C1=N\OCCN1CCOCC1)C(=O)N2 [Compound 6] | 0.053 ± 0.011 µM | 
0.00755 ± 0.00101 µM | O=C1Nc2ccc(C(=O)O)cc2/C1=C1/Nc2ccccc2/C1=N\OCCN1CCOCC1 [Compound 12] | > 1 µM | 
